Reference: ChEMBL document CHEMBL1201862, “PubChem BioAssay data set” (2004)
Where “and” joins values, the source holds several entries; their conditions need not be identical. Equal entries are not always repeated.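 Compound exposure: 48 hours, 5 concentrations, 96-well plates. GI50 = concentration required for 50% inhibition of growth.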 Calls of active or inactive are those of the source. Rule as the data show it: active = GI50 up to about 1.1 µM and inactive = higher.

Key:
Assay in all cases: NCI tumour cell line growth inhibition, 48 h
RPMI-8226 = tested on: RPMI-8226
NCI/ADR-RES = tested on: NCI/ADR-RES
Hs-578T = tested on: Hs-578T
MOLT-4 = tested on: MOLT-4
HOP-92 = tested on: HOP-92
HCC 2998 = tested on: HCC 2998
Malme-3M = tested on: Malme-3M
NCI-H23 = tested on: NCI-H23
MDA-N = tested on: MDA-N
NCI-H460 = tested on: NCI-H460
SF-295 = tested on: SF-295
M14 = tested on: M14
UO-31 = tested on: UO-31
OVCAR-5 = tested on: OVCAR-5
CAKI-1 = tested on: CAKI-1
DU-145 = tested on: DU-145
HCT-116 = tested on: HCT-116
OVCAR-4 = tested on: OVCAR-4
HCT-15 = tested on: HCT-15
KM12 = tested on: KM12
MDA-MB-435 = tested on: MDA-MB-435
MCF7 = tested on: MCF7
EKVX = tested on: EKVX
SW-620 = tested on: SW-620
COLO 205 = tested on: COLO 205
SK-MEL-2 = tested on: SK-MEL-2
RXF 393 = tested on: RXF 393
OVCAR-3 = tested on: OVCAR-3
786-0 = tested on: 786-0
PC-3 = tested on: PC-3
ACHN = tested on: ACHN
HT-29 = tested on: HT-29
SNB-19 = tested on: SNB-19
SK-MEL-5 = tested on: SK-MEL-5
K562 = tested on: K562
MDA-MB-231 = tested on: MDA-MB-231
HOP-62 = tested on: HOP-62
SK-MEL-28 = tested on: SK-MEL-28
A549 = tested on: A549
A498 = tested on: A498
SR = tested on: SR
U-251 = tested on: U-251
NCI-H522 = tested on: NCI-H522
CCRF-CEM = tested on: CCRF-CEM
UACC-62 = tested on: UACC-62
UACC-257 = tested on: UACC-257
IGROV-1 = tested on: IGROV-1
SK-OV-3 = tested on: SK-OV-3
TK-10 = tested on: TK-10
SNB-75 = tested on: SNB-75
SN12C = tested on: SN12C
SF-268 = tested on: SF-268
OVCAR-8 = tested on: OVCAR-8
LOX IMVI = tested on: LOX IMVI
NCI-H226 = tested on: NCI-H226
SF-539 = tested on: SF-539

CCCOc1c2cc(COC3OC(CO)C(O)C(O)C3O)cc1Cc1cc(COC3OC(CO)C(O)C(O)C3O)cc(c1OCCC)Cc1cc(COC3OC(CO)C(O)C(O)C3O)cc(c1OCCC)Cc1cc(COC3OC(CO)C(O)C(O)C3O)cc(c1OCCC)C2 (configuration not stated)
GI50 (RPMI-8226): 50.7 µM (inactive) and 54.3 µM (inactive)
GI50 (NCI/ADR-RES): > 100 µM (inactive) and 92.7 µM (inactive)
GI50 (Hs-578T): 54 µM (inactive) and 39.1 µM (inactive)
GI50 (MOLT-4): 14.4 µM (inactive)
GI50 (HOP-92): 48.9 µM (inactive) and 57.1 µM (inactive)
GI50 (HCC 2998): 45.6 µM (inactive) and 57.8 µM (inactive) and 32 µM (inactive)
GI50 (Malme-3M): > 100 µM (inactive)

COc1ccc(C(=O)NCCC2CN(S(=O)(=O)C(F)(F)F)c3ccccc32)c(OC)c1 (configuration not stated)
GI50 (NCI-H23): 32.8 µM (inactive)
GI50 (MDA-N): 33.2 µM (inactive)
GI50 (NCI-H460): 33.6 µM (inactive)
GI50 (SF-295): 68.9 µM (inactive)
GI50 (M14): 35.1 µM (inactive)
GI50 (UO-31): 43 µM (inactive)
GI50 (OVCAR-5): > 100 µM (inactive)
GI50 (RPMI-8226): 26.8 µM (inactive)
GI50 (CAKI-1): > 100 µM (inactive)
GI50 (DU-145): > 100 µM (inactive)
GI50 (HCT-116): 35.8 µM (inactive)
GI50 (OVCAR-4): 69.3 µM (inactive)
GI50 (HCT-15): 57.4 µM
GI50 (KM12): 21.3 µM (inactive)
GI50 (MDA-MB-435): 30.1 µM (inactive)
GI50 (MCF7): 52.1 µM (inactive)
GI50 (EKVX): 39 µM (inactive)
GI50 (SW-620): 35.8 µM (inactive)
GI50 (COLO 205): 34.5 µM (inactive)
GI50 (NCI/ADR-RES): 23.1 µM (inactive)
GI50 (Hs-578T): 33.1 µM (inactive)
GI50 (SK-MEL-2): 53.6 µM (inactive)
GI50 (RXF 393): > 100 µM (inactive)
GI50 (MOLT-4): 29.1 µM (inactive)
GI50 (OVCAR-3): 51.4 µM (inactive)
GI50 (786-0): 53 µM (inactive)
GI50 (PC-3): 36 µM (inactive)
GI50 (ACHN): 33.2 µM (inactive)
GI50 (HOP-92): 61.4 µM (inactive)
GI50 (HT-29): 22.7 µM (inactive)
GI50 (SNB-19): 54.5 µM (inactive)
GI50 (HCC 2998): 60.4 µM (inactive)
GI50 (SK-MEL-5): 15.2 µM (inactive)
GI50 (K562): 28.3 µM (inactive)
GI50 (MDA-MB-231): > 100 µM (inactive)
GI50 (HOP-62): 88.5 µM (inactive)
GI50 (SK-MEL-28): 51.2 µM (inactive)
GI50 (A549): 52.1 µM (inactive)
GI50 (A498): > 100 µM (inactive)
GI50 (SR): > 100 µM (inactive)
GI50 (U-251): 30.3 µM (inactive)
GI50 (NCI-H522): 19.3 µM (inactive)
GI50 (CCRF-CEM): 17.2 µM (inactive)
GI50 (UACC-62): 26.9 µM (inactive)
GI50 (UACC-257): 40.8 µM (inactive)
GI50 (Malme-3M): 7.06 µM (inactive)
GI50 (IGROV-1): 61.4 µM (inactive)
GI50 (SK-OV-3): > 100 µM (inactive)

C/C1=C\[C@H](C)C[C@H](C)OC(=O)C[C@H](c2ccc(O)cc2)NC(=O)[C@H](Cc2ccc(O)c(Br)c2)N(C)C(=O)[C@H](C)NC(=O)[C@@H](C)C1
GI50 (NCI-H23): > 25 µM (inactive)
GI50 (MDA-N): > 25 µM (inactive)
GI50 (TK-10): > 25 µM (inactive)
GI50 (SF-295): > 25 µM (inactive)
GI50 (M14): > 25 µM (inactive)
GI50 (UO-31): > 25 µM (inactive)
GI50 (OVCAR-5): > 25 µM (inactive)
GI50 (RPMI-8226): > 25 µM (inactive)
GI50 (DU-145): > 25 µM (inactive)
GI50 (HCT-116): > 25 µM (inactive)
GI50 (OVCAR-4): > 25 µM (inactive)
GI50 (HCT-15): > 25 µM
GI50 (KM12): > 25 µM (inactive)
GI50 (MDA-MB-435): > 25 µM (inactive)
GI50 (MCF7): > 25 µM (inactive)
GI50 (EKVX): > 25 µM (inactive)
GI50 (SW-620): > 25 µM (inactive)
GI50 (COLO 205): > 25 µM (inactive)
GI50 (NCI/ADR-RES): > 25 µM (inactive)
GI50 (Hs-578T): > 25 µM (inactive)
GI50 (SK-MEL-2): > 25 µM (inactive)
GI50 (MOLT-4): > 25 µM (inactive)
GI50 (OVCAR-3): > 25 µM (inactive)
GI50 (SNB-75): > 25 µM (inactive)
GI50 (SN12C): > 25 µM (inactive)
GI50 (786-0): > 25 µM (inactive)
GI50 (SF-268): > 25 µM (inactive)
GI50 (PC-3): > 25 µM (inactive)
GI50 (ACHN): > 25 µM (inactive)
GI50 (HOP-92): > 25 µM (inactive)
GI50 (HT-29): > 25 µM (inactive)
GI50 (SNB-19): > 25 µM (inactive)
GI50 (SK-MEL-5): > 25 µM (inactive)
GI50 (K562): > 25 µM (inactive)
GI50 (MDA-MB-231): > 25 µM (inactive)
GI50 (HOP-62): > 25 µM (inactive)
GI50 (SK-MEL-28): > 25 µM (inactive)
GI50 (A549): > 25 µM (inactive)
GI50 (A498): > 25 µM (inactive)
GI50 (SR): > 25 µM (inactive)
GI50 (OVCAR-8): > 25 µM (inactive)
GI50 (U-251): > 25 µM (inactive)
GI50 (LOX IMVI): > 25 µM (inactive)
GI50 (NCI-H522): > 25 µM (inactive)
GI50 (CCRF-CEM): > 25 µM (inactive)
GI50 (UACC-62): > 25 µM (inactive)
GI50 (Malme-3M): > 25 µM (inactive)
GI50 (IGROV-1): > 25 µM (inactive)
GI50 (NCI-H226): > 25 µM (inactive)
GI50 (SK-OV-3): > 25 µM (inactive)

COc1cc(CC(C)N[C@@H](C)c2ccccc2)cc(OC)c1 (some centres not stated)
GI50 (CAKI-1): > 100 µM (inactive)
GI50 (SF-539): > 100 µM (inactive)
GI50 (KM12): > 100 µM (inactive)
GI50 (Hs-578T): 72.1 µM (inactive)
GI50 (SK-MEL-2): > 100 µM (inactive)
GI50 (RXF 393): > 100 µM (inactive)
GI50 (NCI-H522): > 100 µM (inactive)
